How the values were obtained:
[1] = target: T1, AChE (Homo sapiens, UniProt P22303); assay: biochemical; conditions: mean ± SD of three independent experiments
T1 construct: purchased BioLegend (via Biocom Africa (Pty) Ltd.)
Procedure: (§1) The melting point values of the test compounds were recorded on a Thermocouple digital melting point apparatus (Mettler Toledo LLC, Columbus, OH, USA). The infrared (IR) spectra were recorded using the thin-film method on a Bruker VERTEX 70 FT-IR Spectrometer (Bruker Optics, Billerica, MA, USA) equipped with an ATR (diamond attenuated total reflectance) accessory. Merck kieselgel 60 (0.063–0.200 mm) (Merck KGaA, Frankfurt, Germany) was used as a stationary phase for column chromatography. The ^1H-NMR and ^13C-NMR spectra of the prepared compounds were obtained as deuterated dimethyl sulfoxide ((CD3)2SO) solutions using Agilent 500 MHz NMR spectrometer (Agilent Technologies, Oxford, UK) operating at 500 MHz and 125 MHz for ^1H and ^13C, respectively. The chemical shifts are quoted relative to tetramethylsilane (TMS) used as an internal reference standard (δ = 0.00 ppm) or a residual protonated solvent. The high-resolution mass spectra were recorded at an ionization potential of 70 eV using Micromass Autospec-TOF (double focusing high resolution) instrument (Waters Corp., Milford, MA, USA). The synthesis and analytical data for 2-amino-5-iodobenzamide (1) have been reported in our previous study. Recombinant human AChE (BioLegend) and BChE (Cloud-Clone Corp.) were purchased via Biocom Africa (Pty) Ltd. (Centurion, Pretoria, South Africa).
(§2) AChE and BChE were used to determine cholinesterase activities spectrophotometrically using […] as substrates, respectively, following a modification of the Ellman’s method, as described in our previous study, and the reactions were performed in triplicate at 37 °C in a 96-well plate. […] A multi-channel pipette was used for the addition of reagents to the wells.
To each well of a 96-well plate, 8.0 μL solution of the test compound, 2.0 μL of AChE (0.04 mg/mL), and 70 μL of Tris buffer (C4H11NO3, 50 mM, pH 7.7) were added sequentially. The assay mixture was pre-incubated for 30 min at room temperature, which was followed by the addition of 10 μL of 5,5′-dithiobis-(2-nitrobenzoic acid) (DTNB, 3 mM in Tris buffer, 50 mM, pH 7.7) and 10 μL of […] (AChI, 5 mM in tris buffer, 50 mM, pH 7.7) to each well to initiate the reaction. […] The average values obtained from the absorbance readings were used to determine the IC50 and standard deviation values using the Graph Pad Prism (version 5.0, GraphPad software Inc., San Diego, CA, USA).

[2] = target: T2, β-secretase (Homo sapiens, UniProt P56817); assay: β-Secretase (BACE-1) inhibition assay; assay type: biochemical; conditions: mean ± SD of three independent experiments
T2 construct: purchased Thermo Fisher Scientific Corporation; host or cells: baculovirus-expressed
T2 sequence (P56817 46-501): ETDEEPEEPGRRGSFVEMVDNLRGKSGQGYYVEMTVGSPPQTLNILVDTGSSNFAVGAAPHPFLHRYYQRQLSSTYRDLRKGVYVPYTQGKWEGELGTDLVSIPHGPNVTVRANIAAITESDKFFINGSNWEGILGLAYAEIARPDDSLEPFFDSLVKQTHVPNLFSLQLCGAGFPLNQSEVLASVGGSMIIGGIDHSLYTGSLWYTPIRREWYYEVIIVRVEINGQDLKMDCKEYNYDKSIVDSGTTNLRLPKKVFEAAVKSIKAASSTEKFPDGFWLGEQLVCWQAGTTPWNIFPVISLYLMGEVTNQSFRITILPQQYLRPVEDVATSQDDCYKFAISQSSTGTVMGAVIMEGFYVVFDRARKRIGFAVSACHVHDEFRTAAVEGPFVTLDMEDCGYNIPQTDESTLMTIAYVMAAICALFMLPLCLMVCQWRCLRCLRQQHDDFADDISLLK
Procedure: The β-secretase inhibitory activities of the test compounds were assayed in triplicates in 96-well plates using a recombinant baculovirus-expressed β-secretase and a specific substrate (Rh-[…]-Quencher), according to the manufacturer’s (Thermo Fisher Scientific Corporation, Johannesburg, Gauteng, South Africa) instructions, as described in our previous study. […] To each well, 2.0 μL human recombinant β-secretase (1.0 U/mL) was added to start the reaction and the reaction mixture was incubated for 60 min at room temperature. […] The IC50 and standard deviation values of both the test compounds and reference standard were calculated using the Graph Pad Prism.

[3] = Nitric oxide radical scavenging assay (Griess reaction); conditions: NO radical scavenging
Procedure: Nitric oxide was generated from sodium nitroprusside and measured by Griess’ reaction following the literature method. The experiment was done in triplicate with ascorbic acid (vitamin C) used as a positive control for the assay. In total, 50 μL of each of the test compounds and the positive control at various concentrations (0.1, 0.5, 1.0, 5.0, and 10.0 μM in methanol) were added to each designated well of the 96 well plate. A total of 50 μL of sodium nitroprusside (10 mM) prepared in saline phosphate buffer (pH = 7.4) was then added to each well and the reaction mixture incubated at room temperature for 3 h. Afterward, 300 μL of the Griess reagent (a mixture of 0.2% N-(1-naphthyl)ethylenediamine dihydrochloride and 2% sulfanilamide in […]) was added to each well and absorbance was read at 546 nm using a Varioskan flash microplate spectrophotometer reader.

[4] = DPPH radical scavenging assay; conditions: read-out: IC50 (SD) DPPH
Procedure: The antioxidant activities of the test compounds against ascorbic acid (Sigma Aldrich, Saint Louis, MO, USA) as a positive control were evaluated using a 2,2-diphenyl-1-picrylhydrazyl (DPPH) radical scavenging assay developed by Zhu et al., as described in our previous study. Duplicate solutions (20 μL) of the test compounds and ascorbic acid in DMSO (final concentrations: 5, 10, 25, 50, and 100 μM) were added into each designated well of a 96-well plate. A solution of DPPH (0.20 mM) (20 μL) in methanol was added to each well, and the 96-well plate was wrapped with aluminium foil and incubated in the dark for 45 min. Five absorbance readings were recorded at 512 nm using a Varioskan flash microplate spectrophotometer reader. The average values obtained from the absorbance readings were used to determine the IC50 and standard deviation values.

[5] = target: T3, BChE (Homo sapiens, UniProt P06276); assay: biochemical; conditions: mean ± SD of three independent experiments
T3 construct: purchased Cloud-Clone Corp. (via Biocom Africa (Pty) Ltd.)
T3 sequence (P06276 29-602): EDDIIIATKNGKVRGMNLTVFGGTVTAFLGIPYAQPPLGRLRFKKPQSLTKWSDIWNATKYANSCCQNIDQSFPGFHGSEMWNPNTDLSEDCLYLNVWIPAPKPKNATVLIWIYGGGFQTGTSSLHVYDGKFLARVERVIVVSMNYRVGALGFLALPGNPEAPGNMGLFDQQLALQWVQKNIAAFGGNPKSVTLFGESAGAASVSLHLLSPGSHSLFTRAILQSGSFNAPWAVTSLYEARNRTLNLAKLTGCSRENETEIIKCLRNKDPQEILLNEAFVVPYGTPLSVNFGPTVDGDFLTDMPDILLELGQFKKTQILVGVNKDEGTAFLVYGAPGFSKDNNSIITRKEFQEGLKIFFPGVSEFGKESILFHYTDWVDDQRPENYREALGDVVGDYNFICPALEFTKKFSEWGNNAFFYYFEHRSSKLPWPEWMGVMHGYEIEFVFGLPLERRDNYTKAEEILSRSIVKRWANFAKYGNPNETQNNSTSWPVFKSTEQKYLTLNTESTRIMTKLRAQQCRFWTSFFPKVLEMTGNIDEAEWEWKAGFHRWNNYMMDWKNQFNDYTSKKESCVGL
Procedure: as §1, §2
A total of 8.0 μL of the test compound and 2.0 μL of BChE (0.02 mg/mL) was added to each of the designated wells of the 96-well plate, and the mixtures were incubated at room temperature for 30 min. Tris buffer (70 μL) was added to each well containing the reaction mixture and incubation was continued for a further 10 min at this temperature, which was followed by the addition of 10 μL solution of 5,5′-dithiobis-(2-nitrobenzoic acid) (DTNB) (3 mM in Tris buffer, 50 mM, pH 7.7) and butyrylcholine iodide (5 mM in Tris buffer, 50 mM, pH 7.7) to each well to initiate the reaction. […] The IC50 and standard deviation values using the Graph Pad Prism.

[6] = tested on: BChE; set-up: method as in PMID 23722618; conditions: cited from earlier work
[7] = tested on: A549 cells; assay: LPS-induced ROS production in A549 cells (H2DCF-DA); assay type: cell-based, human; conditions: 10 μM compound, LPS 1 μg/mL, 24 h (Figure 9b)
Procedure: (§3) Mitochondrial ROS levels in Vero and A549 cell lines was measured using the 2′,7′-dichlorofluorescin diacetate (H2DCF-DA) (Sigma-Aldrich, St. Louis, MO, USA, Merck, Darmstadt, Germany), fluorescent probe. Cells (1 × 10^5) were seeded in 96 well plates and incubated overnight at 37 °C in 5% CO2. A minimum non-toxic concentration (10 μM) of compounds (2a and 3b) was added separately as treatment and further incubated for an hour, after which LPS (1 μg/mL) was added to induce the production of ROS. After 24 h of incubation, the media was aspirated, cells were rinsed with PBS, and followed by the addition of H2DCF-DA (10 μM) for 30 min in the dark. The absorbance of the fluorescence was measured using a microplate reader (VarioSkan Flash, Thermo Fisher Scientific, Finland) at 485 and 535 nm values of excitation and emission, respectively. Data was processed and analysed using ANOVA, which was followed by Duncan’s multiple comparison test.

[8] = Cytotoxicity (MTT assay) on Vero cells
Procedure: (§4) The cytotoxicity activity of the compounds was evaluated using the 3-(4,5-dimethylthiazol-2-yl)-2,5-diphenyltetrazolium bromide (MTT) assay following a modification of a method by Mosmann. Normal monkey kidney cells (Vero cells) and adeno-carcinomic human epithelial cells (A549 cells) were maintained in Dulbecco’s modified Eagle’s medium (DMEM, Gibco) supplemented with 10% fetal bovine serum (FBS) and 1% penicillin/streptomycin in culture flasks and incubated at 37 °C in 5% CO2. […] Cells were seeded at 1 × 10^5 cells/well and incubated overnight to allow cell attachment. After 24 h, treatments were administered with different concentrations (0, 2.5, 5, 10, 25, 50, and 100 μM) of the compounds and doxorubicin (positive control). After 24 h of incubation, 20 μL of the MTT solution (5 mg/mL) was added in all the wells, which was followed by 4 h of incubation.

[9] = in vitro; conditions: human
Procedure: as §4

[10] = tested on: Vero cells; assay: LPS-induced ROS production in Vero cells (H2DCF-DA); assay type: cell-based, monkey; conditions: 10 μM compound, LPS 1 μg/mL, 24 h (Figure 9a)
Procedure: as §3

T1 sequence (P22303 32-614): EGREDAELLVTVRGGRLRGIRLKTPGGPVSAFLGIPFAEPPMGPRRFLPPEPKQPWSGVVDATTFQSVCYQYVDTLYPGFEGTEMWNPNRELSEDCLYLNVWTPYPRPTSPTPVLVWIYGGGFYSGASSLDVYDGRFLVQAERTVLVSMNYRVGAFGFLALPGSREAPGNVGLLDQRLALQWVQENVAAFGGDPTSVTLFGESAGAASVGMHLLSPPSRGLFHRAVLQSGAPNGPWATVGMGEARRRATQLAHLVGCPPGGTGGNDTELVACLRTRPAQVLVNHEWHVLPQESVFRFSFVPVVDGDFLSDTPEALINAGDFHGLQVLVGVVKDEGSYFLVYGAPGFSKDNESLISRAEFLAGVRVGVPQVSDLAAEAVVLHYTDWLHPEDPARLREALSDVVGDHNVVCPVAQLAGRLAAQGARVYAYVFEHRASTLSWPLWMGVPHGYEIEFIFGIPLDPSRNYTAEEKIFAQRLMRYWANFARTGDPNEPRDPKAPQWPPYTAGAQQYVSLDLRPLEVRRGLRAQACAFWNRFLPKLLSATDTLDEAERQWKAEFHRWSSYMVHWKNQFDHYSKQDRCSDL

Row | SMILES | IC50 [1] [µM] | IC50 [2] [µM] | IC50 [3] [µM] | IC50 [4] [µM] | IC50 [5] [µM] | further results
1 | Cc1ccc(S(=O)(=O)Nc2ccc(/C=C/c3ccc(Cl)cc3)cc2C(N)=O)cc1 [Compound 3c, (E)-5-(4-Chlorostyryl)-2-[[(4-methylphenyl)sulfonyl]amino]benzamide] | 7.8 ± 0.21 | 15 ± 0.16 | 8.6 ± 0.3 | 22.4 ± 0.51 | 6.9 ± 0.1 | 
2 | COc1ccc(/C=C/c2ccc(NS(=O)(=O)c3ccc(C)cc3)c(C(N)=O)c2)cc1 [Compound 3d, (E)-5-(4-Methoxystyryl)-2-[[(4-methylphenyl)sulfonyl]amino]benzamide] | 11.3 ± 0.23 | 19.3 ± 0.24 | 12.3 ± 0.31 | 9.1 ± 0.26 | 13.3 ± 0.26 | 
3 | O=C1O[C@H]([C@@H](O)CO)C(O)=C1O [Ascorbic acid, reference compound] |  |  | 6.23 ± 0.13 | 4.18 ± 0.13 |  | IC50 ([3]; listed as ascorbic acid): 6.2 µM; IC50 ([4]; listed as ascorbic acid): 4.2 µM
4 | Oc1ccccc1/C=C/c1cc(O)c(F)c(O)c1 [C] |  |  |  |  |  | fold more active and selective against BChE than against AChE [6]: 94 fold
5 | Cc1ccc(S(=O)(=O)Nc2ccc(/C=C/c3ccc(F)cc3)cc2C(N)=O)cc1 [Compound 3b, (E)-5-(4-Fluorostyryl)-2-[[(4-methylphenyl)sulfonyl]amino]benzamide] | 4.3 ± 0.48 | 10.1 ± 0.18 |  | 25.6 ± 0.3 | 8.1 ± 0.52 | ROS reduction (in words) [7]: significant ROS reduction; IC50 at 24 h ([8]; monkey, Vero cells (normal monkey kidney cells)): 191.4 ± 0.6 µM; IC50 at 24 h ([9]; A549 cells (adeno-carcinomic human epithelial cells)): 55 ± 0.11 µM; suppression of LPS-induced ROS [10]: ~40%
6 | NC(=O)c1cc(/C=C/c2ccc(Cl)cc2)ccc1N [Compound 2c, (E)-2-Amino-5-(4-chlorostyryl)benzamide] | 8.6 ± 0.42 | 6.7 ± 0.18 | 9.3 ± 0.13 | 11.3 ± 0.11 | 18.9 ± 0.24 | 
7 | Cc1ccc(S(=O)(=O)Nc2ccc(/C=C/c3ccccc3)cc2C(N)=O)cc1 [Compound 3a, (E)-5-Styryl-2-[[(4-methylphenyl)sulfonyl]amino]benzamide] | 9.5 ± 0.53 | 16.5 ± 0.31 | 13.1 ± 0.43 | 19.4 ± 0.4 | 10.8 ± 0.4 | 
8 | COc1cccc2c1C(=O)c1c(O)c3c(c(O)c1C2=O)C[C@@](O)(C(=O)CO)C[C@@H]3O[C@H]1C[C@H](N)[C@H](O)[C@H](C)O1 [Doxorubicin, reference compound] |  |  |  |  |  | IC50 at 24 h [8]: 0.66 ± 0.12 µM; IC50 at 24 h [9]: 1.14 ± 0.23 µM
9 | COc1ccc(/C=C/c2ccc(N)c(C(N)=O)c2)cc1 [Compound 2d, (E)-2-Amino-5-(4-methoxystyryl)benzamide] | 7.8 ± 0.3 | 17.2 ± 0.31 | 11.2 ± 0.22 | 20.8 ± 0.24 | 14.6 ± 0.47 | 
10 | NC(=O)c1cc(/C=C/c2ccc(F)cc2)ccc1N [Compound 2b, (E)-2-Amino-5-(4-fluorostyryl)benzamide] | 5.4 ± 0.12 | 13.9 ± 0.25 | 15.8 ± 0.3 | 12.9 ± 0.22 | 19.7 ± 0.25 | 

From article PMC8145986, “In Vitro Enzymatic and Kinetic Studies, and In Silico Drug-Receptor Interactions, and Drug-Like Profiling of the 5-Styrylbenzamide Derivatives as Potential Cholinesterase and β-Secretase Inhibitors with Antioxidant Properties” (Antioxidants, 2021)
